{
  "source": "patent US20030220309A1",
  "about": "“17-methylenandrostan-3alpha-ol analogs as CRH inhibitors” (Pherin Pharmaceuticals, Inc., priority 2001, published 2003)",
  "key": {"[1]": {"system": "norepinephrine and serotonin", "assay": "Neurotransmitter concentrations in blood and metabolites in urine", "assay_type": "in vivo", "conditions": "relative to placebo, human volunteers", "description": "(§1) 17-Methylenandrost-4-en-3α-ol, 400 pg, or placebo were administered to the vomeronasal organs of normal adult male and female human volunteers using a delivery device which delivered the compound to the opening of the vomeronasal organ in measured quantity (two 2 second “puffs” of a 10^−8 M solution of the active ingredient in propylene glycol, or propylene glycol alone). The study evaluations included objective and subjective evaluations of sleep, a power spectral analysis of the subjects' electroencephalograms, and a pencil-and-paper self-report inventory (ABS-70) of the subjects' effective state.\n(§2) 17-Methylenandrost-4-en-3α-ol also reduces plasma concentrations of ACTH and cortisol, and also reduces cortisol concentration in urine. It also increases, relative to placebo, concentrations of the neurotransmitters norepinephrine and serotonin in blood and their metabolites in urine."}, "[2]": {"system": "normal adult male and female human volunteers", "assay": "Power spectral analysis of electroencephalograms after vomeronasal administration", "assay_type": "in vivo", "conditions": "400 pg to the vomeronasal organ", "description": "as §1\nBased on this study, 17-methylenandrost-4-en-3α-ol shares antidepressant and stimulant properties with paroxetine and other selective serotonin reuptake inhibitor antidepressants."}, "CRH": {"system": "CRH", "assay": "ACTH and cortisol concentrations in plasma and urine (indirect measure of CRH inhibition)", "assay_type": "in vivo", "conditions": "400 pg to the vomeronasal organ, human volunteers", "description": "The compounds of this invention are, when administered to the VNO, CRH inhibitors. Their activity as CRH inhibitors in vivo can be measured directly by measurement of the inhibition of CRH or indirectly by the measurement of other hormones, such as ACTH, and steroids, such as cortisol, associated with CRH, as discussed in the Examples.\nas §1, §2"}, "[3]": {"system": "normal adult male and female human volunteers", "assay": "Overall outcome of the vomeronasal study (sleep, EEG, self-report)", "assay_type": "in vivo", "conditions": "administration to the vomeronasal organ", "description": "as §1"}, "[4]": {"system": "normal adult male and female human volunteers", "assay": "Sleep evaluation after administration to the vomeronasal organ of normal human volunteers", "assay_type": "in vivo", "design": "key: increase (↑); decrease (↓); no change (=)", "conditions": "400 pg administered to the VNO before bedtime, normal subjects, males and females combined, change with respect to placebo", "description": "as §1\nThe table below provides a comparison of the results from the study with 17-methylenandrost-4-en-3α-ol with literature reports on the effects of the effects of the marketed antidepressant paroxetine (Paxil®); where changes in sleep variables are indicated as an increase (↑), decrease (↓), or no change (=) with respect to placebo.\nComparative effects of 17-methylenandrost-4-en-3α-ol, 400 pg administered to the VNO, and paroxetine, 30 mg orally, given before bedtime in normal subjects: […]"}, "normal subjects": {"system": "normal subjects", "design": "key: increase (↑); decrease (↓); no change (=)", "conditions": "30 mg orally before bedtime, change with respect to placebo, from Saletu et al. 1991; cited from earlier work"}},
  "data": [
    {"smiles": "C=C1CC[C@H]2[C@@H]3CCC4=C[C@H](O)CC[C@]4(C)[C@H]3CC[C@]12C", "note": "[17-Methylenandrost-4-en-3α-ol]", "values": [
      {"measurement": "concentration of norepinephrine in blood", "setting": "[1]; blood", "value": "increases"},
      {"measurement": "concentration of serotonin in blood", "setting": "[1]; blood", "value": "increases"},
      {"measurement": "concentrations of norepinephrine and serotonin metabolites in urine", "setting": "[1]; urine", "value": "increases"},
      {"measurement": "EEG β-wave activity", "setting": "[2]", "value": "increased"},
      {"measurement": "EEG θ-wave activity", "setting": "[2]", "value": "increased"},
      {"measurement": "δ-frequency activity in stages S3 and S4 non-REM sleep", "setting": "[2]", "value": "increase"},
      {"measurement": "plasma concentration of ACTH", "setting": "CRH; plasma", "value": "reduces"},
      {"measurement": "plasma concentration of cortisol", "setting": "CRH; plasma", "value": "reduces"},
      {"measurement": "cortisol concentration in urine", "setting": "CRH; urine", "value": "reduces"},
      {"measurement": "overall study result (sleep, EEG, hormones, neurotransmitters)", "setting": "[3]", "value": "antidepressant properties"},
      {"measurement": "REM sleep latency", "setting": "[4]", "value": "↑"},
      {"measurement": "Sleep efficiency", "setting": "[4]", "value": "↓"},
      {"measurement": "Sleep latency", "setting": "[4]", "value": "↑"},
      {"measurement": "Stage 1 sleep time", "setting": "[4]", "value": "↑"},
      {"measurement": "Stage 2 sleep time", "setting": "[4]", "value": "↑"},
      {"measurement": "Stages 3 + 4 sleep time", "setting": "[4]", "value": "="},
      {"measurement": "Total REM sleep time", "setting": "[4]", "value": "↓"},
      {"measurement": "Total sleep time", "setting": "[4]", "value": "↓"}
    ]},
    {"smiles": "Fc1ccc([C@@H]2CCNC[C@H]2COc2ccc3c(c2)OCO3)cc1", "note": "[Paroxetine, paroxetine]", "values": [
      {"measurement": "REM sleep latency", "setting": "normal subjects", "value": "↑"},
      {"measurement": "Sleep efficiency", "setting": "normal subjects", "value": "↓"},
      {"measurement": "Sleep latency", "setting": "normal subjects", "value": "↑"},
      {"measurement": "Stage 1 sleep time", "setting": "normal subjects", "value": "↑"},
      {"measurement": "Stage 2 sleep time", "setting": "normal subjects", "value": "="},
      {"measurement": "Stages 3 + 4 sleep time", "setting": "normal subjects", "value": "="},
      {"measurement": "Total REM sleep time", "setting": "normal subjects", "value": "↓"},
      {"measurement": "Total sleep time", "setting": "normal subjects", "value": "↓"}
    ]}
  ]
}
